According to PMC3496871 (Molecular bioSystems, 2012):
“Also recorded” adds a separate entry of the source.

Tests used:
[1] = molecular target: T1, Eis_Ava (Trichormus variabilis (Anabaena variabilis), UniProt Q3M362); experiment: Acyl-CoA cosubstrate profile of Eis_Ava; assay type: biochemical; conditions: 6 acyl-CoA cosubstrates tested
[2] = molecular target: T2, Eis_Mtb (Mycobacterium tuberculosis, UniProt P9WFK7); conditions: transfer onto a few AGs; cited from earlier work
[3] = molecular target: T2, Eis_Mtb; conditions: cited from earlier work
[4] = tested on: Eis_Msm; conditions: cited from earlier work
[5] = molecular target: T1, Eis_Ava; experiment: Regio-specificity of NEA acetylation by Eis_Ava; assay type: biochemical
[6] = molecular target: T1, Eis_Ava; experiment: biochemical; assay type: biochemical
[7] = tested on: Eis_Ava; experiment: biochemical; assay type: biochemical
[8] = molecular target: T3, Eis_Msm (Mycolicibacterium smegmatis, UniProt A0QY29); assay type: biochemical; conditions: read-out: IC50 Eis_Msm; NEO acetylation
[9] = molecular target: T1, Eis_Ava; experiment: Number of acetylations of AGs by Eis_Ava; assay type: biochemical; conditions: mass spectrometry; AG 0.67 mM, AcCoA 6.7 mM, Eis_Ava 10 μM, overnight at rt
[10] = tested on: NC[C@H]1O[C@H](O[C@H]2[C@H](O)[C@@H](O)[C@H](N)C[C@@H]2N)[C@H](N)[C@@H](O)[C@@H]1O; experiment: purified protein, by the assay type; assay type: biochemical, Mycobacterium tuberculosis; conditions: other: Eis_Mtb […], 500 μM AcCoA, apparent, pH 7.5
[11] = molecular target: T3, Eis_Msm; experiment: UV-Vis assay of Eis_Msm activity against KAN and 6′-glycinyl-KAN; conditions: AG 0.1 mM, AcCoA 0.5 mM, Eis 0.5 μM
[12] = molecular target: T2, Eis_Mtb; assay type: biochemical; conditions: AG 0.1 mM, AcCoA 0.5 mM, Eis 0.5 μM
[13] = molecular target: T1, Eis_Ava; experiment: UV-Vis assay of Eis_Ava activity against KAN and 6′-glycinyl-KAN; conditions: AG 0.1 mM, AcCoA 0.5 mM, Eis 0.5 μM
[14] = tested on: NC[C@@H]1O[C@H](O[C@H]2[C@@H](O)[C@H](O[C@@H]3[C@@H](O)[C@H](N)C[C@H](N)[C@H]3O[C@H]3O[C@H](CO)[C@@H](O)[C@H](O)[C@H]3N)O[C@@H]2CO)[C@H](N)[C@@H](O)[C@@H]1O; experiment: purified protein, by the assay type; assay type: biochemical, Mycobacterium smegmatis; conditions: other: Eis_Msm […], 500 μM AcCoA, apparent, pH 7.5
[15] = tested on: NC[C@@H]1O[C@H](O[C@H]2[C@@H](O)[C@H](O[C@@H]3[C@@H](O)[C@H](N)C[C@H](N)[C@H]3O[C@H]3O[C@H](CN)[C@@H](O)[C@H](O)[C@H]3N)O[C@@H]2CO)[C@H](N)[C@@H](O)[C@@H]1O; experiment: purified protein, by the assay type; assay type: biochemical, Mycobacterium smegmatis; conditions: other: Eis_Msm […], 500 μM AcCoA, apparent, pH 7.5
[16] = tested on: CN[C@@H]1[C@@H](O[C@H]2O[C@H](CO)[C@@H](N)[C@H](O)[C@H]2O)OC2C[C@@H](N)[C@@H](O[C@H]3[C@H](O)[C@@H](O)[C@H](N)C[C@@H]3N)OC2[C@@H]1O; experiment: purified protein, by the assay type; assay type: biochemical, Mycobacterium smegmatis; conditions: other: Eis_Msm […], 500 μM AcCoA, apparent, pH 7.5
[17] = tested on: NC[C@H]1O[C@H](O[C@H]2[C@H](O)[C@@H](O)[C@H](N)C[C@@H]2N)[C@H](N)[C@@H](O)[C@@H]1O; experiment: purified protein, by the assay type; assay type: biochemical, Mycobacterium smegmatis; conditions: other: Eis_Msm […], 500 μM AcCoA, apparent, pH 7.5
[18] = molecular target: T2, Eis_Mtb; assay type: biochemical; conditions: 500 μM AcCoA, apparent
[19] = tested on: NC[C@@H]1O[C@H](O[C@H]2[C@@H](O)[C@H](O[C@@H]3[C@@H](O)[C@H](N)C[C@H](N)[C@H]3O[C@H]3O[C@H](CO)[C@@H](O)[C@H](O)[C@H]3N)O[C@@H]2CO)[C@H](N)[C@@H](O)[C@@H]1O; experiment: purified protein, by the assay type; assay type: biochemical, Anabaena variabilis; conditions: other: Eis_Ava […], 500 μM AcCoA, apparent, pH 7.5
[20] = tested on: NC[C@@H]1O[C@H](O[C@H]2[C@@H](O)[C@H](O[C@@H]3[C@@H](O)[C@H](N)C[C@H](N)[C@H]3O[C@H]3O[C@H](CN)[C@@H](O)[C@H](O)[C@H]3N)O[C@@H]2CO)[C@H](N)[C@@H](O)[C@@H]1O; experiment: purified protein, by the assay type; assay type: biochemical, Anabaena variabilis; conditions: other: Eis_Ava […], 500 μM AcCoA, apparent, pH 7.5
[21] = tested on: CN[C@@H]1[C@@H](O[C@H]2O[C@H](CO)[C@@H](N)[C@H](O)[C@H]2O)OC2C[C@@H](N)[C@@H](O[C@H]3[C@H](O)[C@@H](O)[C@H](N)C[C@@H]3N)OC2[C@@H]1O; experiment: purified protein, by the assay type; assay type: biochemical, Anabaena variabilis; conditions: other: Eis_Ava […], 500 μM AcCoA, apparent, pH 7.5
[22] = tested on: NC[C@H]1O[C@H](O[C@H]2[C@H](O)[C@@H](O)[C@H](N)C[C@@H]2N)[C@H](N)[C@@H](O)[C@@H]1O; experiment: purified protein, by the assay type; assay type: biochemical, Anabaena variabilis; conditions: other: Eis_Ava […], 500 μM AcCoA, apparent, pH 7.5

T2 sequence (P9WFK7 whole entry): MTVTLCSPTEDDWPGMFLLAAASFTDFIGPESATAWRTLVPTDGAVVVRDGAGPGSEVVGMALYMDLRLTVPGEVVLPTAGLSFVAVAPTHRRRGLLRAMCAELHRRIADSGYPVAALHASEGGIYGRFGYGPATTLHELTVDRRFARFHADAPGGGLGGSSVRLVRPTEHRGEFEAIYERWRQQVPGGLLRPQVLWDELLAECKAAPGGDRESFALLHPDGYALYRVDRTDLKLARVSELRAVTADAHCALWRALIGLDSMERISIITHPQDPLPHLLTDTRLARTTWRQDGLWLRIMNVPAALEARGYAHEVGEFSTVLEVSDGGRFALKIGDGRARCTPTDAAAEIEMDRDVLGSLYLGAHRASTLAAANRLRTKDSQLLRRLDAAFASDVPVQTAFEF

CC(=O)SCCNC(=O)CCNC(=O)[C@H](O)C(C)(C)COP(=O)(O)OP(=O)(O)OC[C@H]1O[C@@H](n2cnc3c(N)ncnc32)[C@H](O)[C@@H]1OP(=O)(O)O [AcCoA]
acceptance as cosubstrate by Eis_Ava [1]: accepted | acceptance as cosubstrate by Eis_Mtb [2]: efficiently accepting

C/C=C/C(=O)SCCNC(=O)CCNC(=O)[C@H](O)C(C)(C)COP(=O)(O)OP(=O)(O)OC[C@H]1O[C@@H](n2cnc3c(N)ncnc32)[C@H](O)[C@@H]1OP(=O)(O)O [crotonyl-CoA]
acceptance as cosubstrate by Eis_Mtb [2]: moderately so

NC[C@H]1O[C@H](O[C@H]2[C@H](O)[C@@H](O)[C@H](N)C[C@@H]2N)[C@H](N)[C@@H](O)[C@@H]1O [NEA, neamine]
positions sequentially acetylated by Eis_Mtb [3]: 2′-, 6′-, and 1-position | positions sequentially acetylated by Eis_Msm [4]: 2′-, 6′-, and 1-position | number of acetylations of NEA by Eis_Ava observed by TLC and NMR [5]: di-acetylation | first position acetylated by Eis_Ava ([5]; TLC and NMR): 2′-position | second site modified by Eis_Ava ([5]; TLC and NMR): 1-position

[H]/N=C(\N/C(=N/[H])NCCCCCCNC(=N)NC(=N)Nc1ccc(Cl)cc1)Nc1ccc(Cl)cc1 [compound 1, chlorhexidine]
IC50 [6]: 20 ± 7 µM | IC50 for Eis_Ava fold higher than against Eis_Msm [7]: 11 fold | IC50 for Eis_Ava fold higher than for Eis_Mtb [7]: 107 fold | IC50 [8]: 1.85 ± 0.39 µM

CN[C@@H]1[C@H](O)[C@H](NC)[C@H]2O[C@@]3(O)C(=O)C[C@@H](C)O[C@H]3O[C@@H]2[C@H]1O [SPT, spectinomycin]
number of acetylations by Eis_Ava [9]: not be substrates

Eis_Mtb (Mycobacterium tuberculosis H37Rv)
Km [10]: 1315 ± 492 µM | kcat [10]: 0.699 ± 0.136 s⁻¹ | kcat/Km [10]: 532 ± 224 M⁻¹ s⁻¹

NCC(=O)NCC1OC(OC2C(N)CC(N)C(OC3OC(CO)C(O)C(N)C3O)C2O)C(O)C(O)C1O (stereo not shown) [6′-glycinyl-KAN]
acetylation by Eis_Msm (UV-Vis) [11]: not a substrate; also recorded: almost inactive | acetylation by Eis_Mtb (UV-Vis) [12]: not a substrate; also recorded: almost inactive | acetylation by Eis_Ava (UV-Vis) [13]: not a substrate; also recorded: almost inactive

[H]/N=C(/N)N[C@H]1[C@H](O)[C@@H](O)[C@H](O[C@@H]2O[C@@H](C)[C@](O)(C=O)[C@H]2O[C@@H]2O[C@@H](CO)[C@H](O)[C@@H](O)[C@@H]2NC)[C@@H](N/C(N)=N\[H])[C@@H]1O [STR, streptomycin]
number of acetylations by Eis_Ava [9]: not be substrates

Eis_Msm (Mycolicibacterium smegmatis MC2 155)
Km [14]: 738 ± 158 µM | kcat [14]: 0.235 ± 0.033 s⁻¹ | kcat/Km [14]: 318 ± 82 M⁻¹ s⁻¹ | Km [15]: 110 ± 14 µM | kcat [15]: 0.148 ± 0.006 s⁻¹ | kcat/Km [15]: 1340 ± 180 M⁻¹ s⁻¹ | Km [16]: 150 ± 43 µM | kcat [16]: 0.019 ± 0.002 s⁻¹ | kcat/Km [16]: 127 ± 39 M⁻¹ s⁻¹ | Km [17]: 1302 ± 312 µM | kcat [17]: 0.687 ± 0.083 s⁻¹ | kcat/Km [17]: 528 ± 142 M⁻¹ s⁻¹

CN[C@@H]1[C@@H](O[C@H]2O[C@H](CO)[C@@H](N)[C@H](O)[C@H]2O)OC2C[C@@H](N)[C@@H](O[C@H]3[C@H](O)[C@@H](O)[C@H](N)C[C@@H]3N)OC2[C@@H]1O (stereo partly shown) [APR, apramycin]
number of acetylations by Eis_Ava [9]: mono-acetylated | substrate of Eis_Mtb [3]: not be a substrate | number of acetylations by Eis_Msm [4]: Di-acetylation

CCC(=O)SCCNC(=O)CCNC(=O)[C@H](O)C(C)(C)COP(=O)(O)OP(=O)(O)OC[C@H]1O[C@@H](n2cnc3c(N)ncnc32)[C@H](O)[C@@H]1OP(=O)(O)O [n-propionyl-CoA]
acceptance as cosubstrate by Eis_Ava [1]: accepted | acceptance as cosubstrate by Eis_Mtb [2]: efficiently accepting

CC(C)(COP(=O)(O)OP(=O)(O)OC[C@H]1O[C@@H](n2cnc3c(N)ncnc32)[C@H](O)[C@@H]1OP(=O)(O)O)[C@@H](O)C(=O)NCCC(=O)NCCSC(=O)CC(=O)O [malonyl-CoA]
acceptance as cosubstrate by Eis_Mtb [2]: moderately so

NC[C@@H]1O[C@H](O[C@H]2[C@@H](O)[C@H](O[C@@H]3[C@@H](O)[C@H](N)C[C@H](N)[C@H]3O[C@H]3O[C@H](CO)[C@@H](O)[C@H](O)[C@H]3N)O[C@@H]2CO)[C@H](N)[C@@H](O)[C@@H]1O [PAR, paromomycin]
Km [18]: 110 ± 21 µM | kcat [18]: 0.136 ± 0.012 s⁻¹ | number of acetylations by Eis_Ava [9]: tri-acetylation | number of acetylations by Eis_Mtb [3]: di-acetylation | number of acetylations by Eis_Msm [4]: tri-acetylation

kanamycin A
acetylation by Eis_Msm (UV-Vis) [11]: efficiently gets multi-acetylated | acetylation by Eis_Mtb (UV-Vis) [12]: efficiently gets multi-acetylated | acetylation by Eis_Ava (UV-Vis) [13]: efficiently gets multi-acetylated

Eis_Ava (Trichormus variabilis ATCC 29413)
Km [19]: 237 ± 36 µM | kcat [19]: 0.183 ± 0.013 s⁻¹ | kcat/Km [19]: 773 ± 132 M⁻¹ s⁻¹ | Km [20]: 101 ± 16 µM | kcat [20]: 0.106 ± 0.006 s⁻¹ | kcat/Km [20]: 1050 ± 184 M⁻¹ s⁻¹ | Km [21]: 337 ± 98 µM | kcat [21]: 0.019 ± 0.002 s⁻¹ | kcat/Km [21]: 57 ± 18 M⁻¹ s⁻¹ | Km [22]: 42 ± 9 µM | kcat [22]: 0.352 ± 0.021 s⁻¹ | kcat/Km [22]: 7410 ± 1940 M⁻¹ s⁻¹
